{"source": "patent US20220243230A1", "about": "“BIOCONVERSION OF 4-COUMARIC ACID TO RESVERATROL” (Conagen Inc., priority 2022, published 2022)", "test_system": "yeast cultures", "assay": "effect of 4-coumaric acid at different concentrations on yeast cultures", "format": "cell-based, S. cerevisiae", "settings": "strains CNFS109 and CNFS110, 48 hours, 30 °C, FIG. 1", "protocol": "The strains of Example 1 were tested in microcultures with 500 mg/L of 4-coumaric acid fed 24 hours post inoculation. CNFS109 and CNFS110 were inoculated into 50 ml of synthetic drop out medium without uracil (Sigma-Aldrich, St. Louis, Missouri) and incubated overnight under shaking conditions. Saturated culture was dispensed into individual wells in 24 well plates that contained 2 ml of synthetic drop out medium without uracil. 4-coumaric acid dissolved in acidified ethanol (20 g/L stock, in ethanol : water : HCl=50:49:1) was added to each well, to form media having 4-coumaric concentrations of 0 mg/L, 100 mg/L, 500 mg/L, 1000 mg/L, and 2000 mg/L, respectively. All experiments were performed in triplicate. The cultures were incubated under shaking for 48 hours (250 rpm, 30 ° C.).\nThe bar graph of FIG. 1 illustrates the effect of 4-coumaric acid at different concentrations on yeast cultures. […] Due to the toxicity associated with high concentrations of 4-coumaric acid which inhibited yeast from growing and metabolizing, resveratrol bioconversion was only observed when 4-coumaric was added to the yeast culture at relatively lower concentrations (FIG. 2)."}
{"compound": "O=C(O)/C=C/c1ccc(O)cc1", "note": "[4-coumaric acid]", "values": [{"measurement": "survival rate of yeast culture", "setting": "1 g/L or 2 g/L added to the culture", "value": "declined"}, {"measurement": "impact due to 4-coumaric acid toxicity on yeast cultures", "setting": "concentration of up to 500 mg/L", "value": "little or no impact"}]}
